18 compounds from patent publication US8546608B2, “Proteasome inhibitors and methods of using the same” (Cephalon, Inc., priority 2003, dated 2013) can be followed below.

The term pIC50 denotes the IC50 on a negative log10 scale, so that one unit is a factor of ten. As usually defined, the pEC50 is the EC50 on a negative log10 scale, so that one unit is a factor of ten.

The target in experiment [1] is T1, 20S Human Erythrocyte Proteasome (HEP) (Homo sapiens, UniProt P20618+P28074).
T1 construct: 20S Human Erythrocyte Proteasome (HEP), purchased from Immatics Biotechnologies Inc; purchased Immatics Biotechnologies Inc., Tübingen, Germany; host or cells: human erythrocytes (natural source)
Put plainly: Chymotrypsin-like activity of 20S Human Erythrocyte Proteasome (HEP), IC50 determination. The format is biochemical. The following applies: assay of Example C, inhibition of HEP. The method in brief:
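20S proteasome at 0.2 μg/mL (about 0.6 nM catalytic sites) in 20 mM Tris with 0.04% SDS, preincubated 15 min at 37° C with inhibitor before Suc-LLVY-AMC (100 μM final). AMC fluorescence read in the linear range; triplicates, IC50 from concentration series.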

The target in experiment [2] is T2, proteasome in Molt-4 cells (human leukemia) (Homo sapiens, UniProt P20618+P28074).
T2 sequence (P28074 60-263): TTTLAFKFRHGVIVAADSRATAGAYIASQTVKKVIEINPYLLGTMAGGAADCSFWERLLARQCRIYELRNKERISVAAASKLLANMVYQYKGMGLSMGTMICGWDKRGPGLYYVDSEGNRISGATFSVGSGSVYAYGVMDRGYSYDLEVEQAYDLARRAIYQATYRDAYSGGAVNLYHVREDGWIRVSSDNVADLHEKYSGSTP
T2 sequence (P20618 29-241): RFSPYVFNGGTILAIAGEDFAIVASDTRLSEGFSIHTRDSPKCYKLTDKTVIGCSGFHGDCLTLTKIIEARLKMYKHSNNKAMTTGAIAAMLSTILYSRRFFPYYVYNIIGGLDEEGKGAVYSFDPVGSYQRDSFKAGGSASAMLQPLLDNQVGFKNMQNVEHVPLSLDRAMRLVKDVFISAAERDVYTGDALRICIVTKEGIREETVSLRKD
The class given is cell-based. The following applies: assay of Example E, inhibition of MOLT4; read-out: MOLT4 (EC50). The procedure:
Cellular Assay for Chymotrypsin-like activity of Proteasome in Molt-4 Cell Line
The chymotrypsin-like activity of proteasome in Molt-4 cells (human leukemia) was assayed according to the following procedure. A brief description of the method was published previously (Harding et al., J. Immunol., 1995, 155, 1767).
Molt-4 cells were washed and resuspended in HEPES-buffered Saline (5.4 mM KCl, 120 mM NaCl, 25 mM Glucose, 1.5 mM MgSO4, 1 mM Na pyruvate, 20 mM Hepes) and plated in 96-well microtiter white plates to a final concentration of 6×10^6 cells/mL. Then various 5× proteasome inhibitor concentrations (or diluted DMSO for controls), prepared from 250×DMSO solutions by diluting 50-fold using HEPES-buffered saline, were added to the plate to a final 1× concentration. After 15 minutes incubation at 37° C., a fluorimetric cell permeable substrate (MeOSuc-FLF-AFC) (methoxysuccinyl-Phe-Leu-Phe-7-amido-4-trifluoromethylcoumarin) purchased from Enzyme Systems Products, catalogue number AFC-88, was added to each well at a final concentration of 25 μM from a stock solution of 20 mM in DMSO. Reaction volumes were 100 μl per well.
The concentration of free AFC was monitored every 1.5 min for 30 min ([…]) on a Polastar Optima, BMG Labtechnologies microplate reader, using an excitation wavelength of 390 nm and emission wavelength of 520 nm. Proteasome activity was determined under conditions in which substrate hydrolysis increased linearly with time and the change in fluorescent signal was proportional to the concentration of free AFC.
Determination of EC50 Values for Proteasome Inhibitors in MOLT-4 Cell Line
Inhibition of chymotrypsin-like activity of proteasome in Molt-4 cells was determined by incubating cells with various concentrations of putative inhibitors for 15 minutes at 37° C. prior to the addition of substrate. Each experimental condition was evaluated in triplicate, and replicate experiments were performed for the inhibitors described herein.

pEC50, pIC50: −log10 of the molar value.

`Cc1ccc(F)c(C(=O)N[C@@H](CCCNC(=N)N[N+](=O)[O-])C(=O)N[C@@H](CC(C)C)B(O)O)c1` [E.2.40, Boronic acid, [(1R)-1-[[(2S)-5-[[imino(nitroamino)methyl]amino]-2-[(2-fluoro-5-methylbenzoyl)amino]-1-oxopentyl]amino]-3-methylbutyl]]: in experiment [1], the negative logarithm of the IC50 (pIC50) is > 8.00. Moreover, in experiment [2], the negative logarithm of the EC50 (pEC50) was 5.00 to 5.70.
The like results for `Cc1ccc(S(=O)(=O)CC(=O)N[C@@H](CCCNC(=N)N[N+](=O)[O-])C(=O)N[C@@H](CC(C)C)B2O[C@@H]3C[C@@H]4C[C@@H](C4(C)C)[C@]3(C)O2)cc1` [D.3.182] were, in that order, > 7.00 and 5.70 to 6.70.
As to `CC(C)C[C@H](NC(=O)[C@H](CCCNC(=N)N[N+](=O)[O-])NC(=O)CC1CC2CCC1C2)B(O)O` (stereo partly drawn) [E.2.41, Boronic acid, [(1R)-1-[[(2S)-5-[[imino(nitroamino)methyl]amino]-2-[[2-(bicyclo[2.2.1]hept-2-yl)acetyl]amino]-1-oxopentyl]amino]-3-methylbutyl]], the pIC50 in experiment [1] was > 8.00. Besides, the pEC50 in experiment [2] was < 5.00.
The corresponding values for `CCCCCCCCCCCCCC(=O)N[C@@H](CCCNC(=N)N[N+](=O)[O-])C(=O)N[C@@H](CC(C)C)B1O[C@@H]2C[C@@H]3C[C@@H](C3(C)C)[C@]2(C)O1` [D.3.102, Tetradecanamide,N-[(1S)-1-[[[(1R)-1-[(3aS,4S,6S,7aR)-hexahydro-3a,5,5-trimethyl-4,6-methano-1,3,2-benzodioxaborol-2-yl]-3-methylbutyl]amino]carbonyl]-4-[[imino(nitroamino)methyl]amino]butyl]] are > 8.00 and 5.70 to 6.70.
Turning to `COc1ccc(C(=O)N[C@@H](CCCNC(=N)N[N+](=O)[O-])C(=O)N[C@@H](CC(C)C)B(O)O)cc1F` [D.7.35, Boronic acid, [(1R)-1-[[(2S)-5-[[imino(nitroamino)methyl]amino]-2-[(3-fluoro-4-methoxybenzoyl)amino]-1-oxopentyl]amino]-3-methylbutyl]], the pIC50 in experiment [1] was > 8.00. In experiment [2], the pEC50 is < 5.00.
The like results for `CCN(CC)c1ccc(C(=O)N[C@@H](CCCNC(=N)N[N+](=O)[O-])C(=O)N[C@@H](CC(C)C)B(O)O)cc1` [D.7.8, Boronic acid, [(1R)-1-[[(2S)-5-[[imino(nitroamino)methyl]amino]-2-[(4-diethylaminobenzoyl)amino]-1-oxopentyl]amino]-3-methylbutyl]] were, in that order, > 8.00 and < 5.00.
As for `CCCCCCCCCCC(=O)N[C@@H](CCCNC(=N)N[N+](=O)[O-])C(=O)N[C@@H](CC(C)C)B(O)O` [D.7.41, Boronic acid, [(1R)-1-[[(2S)-5-[[imino(nitroamino)methyl]amino]-2-[(undecanoyl)amino]-1-oxopentyl]amino]-3-methylbutyl]], in experiment [1], the pIC50 was > 8.00. In addition, in experiment [2], the pEC50 is > 6.70.
The like results for `CC(C)C[C@H](NC(=O)[C@H](CCCNC(=N)N[N+](=O)[O-])NC(=O)CCCCCCCCCCC#N)B(O)O` [D.7.60, Boronic acid, [(1R)-1-[[(2S)-5-[[imino(nitroamino)methyl]amino]-2-[(11-cianoundecanoyl)amino]-1-oxopentyl]amino]-3-methylbutyl]] were, in that order, > 8.00 and 5.00 to 5.70.
The like results for `CC(=O)N[C@@H](CCCNC(=N)N[N+](=O)[O-])C(=O)N[C@@H](CC(C)C)B(O)O` [E.2.65, Boronic acid, [(1R)-1-[[(2S)-5-[[imino(nitroamino)methyl]amino]-2-[(acetyl)amino]-1-oxopentyl]amino]-3-methylbutyl]] were, in that order, > 7.00 and < 5.00.
The corresponding values for `CC(C)C[C@H](NC(=O)[C@H](CCCNC(=N)N[N+](=O)[O-])NC(=O)CCc1ccc(C(C)C)cc1)B1O[C@@H]2C[C@@H]3C[C@@H](C3(C)C)[C@]2(C)O1` [D.3.190, 3-[4-(2-Propyl)phenyl]propanamide, N-[(1S)-1-[[[(1R)-1-[(3aS,4S,6S,7aR)-hexahydro-3a,5,5-trimethyl-4,6-methano-1,3,2-benzodioxaborol-2-yl]-3-methylbutyl]amino]carbonyl]-4-[[imino(nitroamino)methyl]amino]butyl]] are > 8.00 and > 6.70.
On to `CC(C)=CCC[C@@H](C)CC(=O)N[C@@H](CCCNC(=N)N[N+](=O)[O-])C(=O)N[C@@H](CC(C)C)B1O[C@@H]2C[C@@H]3C[C@@H](C3(C)C)[C@]2(C)O1` [D.3.75, (3R)-3,7-Dimethyl-oct-6-enoic acid amide,N-[(1S)-1-[[[(1R)-1-[(3aS,4S,6S,7aR)-hexahydro-3a,5,5-trimethyl-4,6-methano-1,3,2-benzodioxaborol-2-yl]-3-methylbutyl]amino]carbonyl]-4-[[imino(nitroamino)methyl]amino]butyl]], for which the pIC50 in experiment [1] is > 8.00. Further, in experiment [2], the pEC50 is > 6.70.
The corresponding values for `CC(C)C[C@H](NC(=O)[C@H](CCCNC(=N)N[N+](=O)[O-])NC(=O)C1CC2CCC1C2)B(O)O` (stereo partly drawn) [E.2.25, Boronic acid, [(1R)-1-[[(2S)-5-[[imino(nitroamino)methyl]amino]-2-[(bicyclo[2.2.1]heptane-2-carbonyl)amino]-1-oxopentyl]amino]-3-methylbutyl]] are > 8.00 and 5.00 to 5.70.
For `CC(C)C[C@H](NC(=O)[C@H](CCCNC(=N)N[N+](=O)[O-])NC(=O)CCc1ccccc1)B(O)O` [E.2.32, Boronic acid, [(1R)-1-[[(2S)-5-[[imino(nitroamino)methyl]amino]-2-[(3-phenylpropanoyl)amino]-1-oxopentyl]amino]-3-methylbutyl]], the negative logarithm of the IC50 (pIC50) in experiment [1] is > 8.00. In addition, the negative logarithm of the EC50 (pEC50) in experiment [2] was < 5.00.
The like results for `CC(C)C[C@H](NC(=O)[C@H](CCCNC(=N)N[N+](=O)[O-])NC(=O)c1cnccn1)B1O[C@@H]2C[C@@H]3C[C@@H](C3(C)C)[C@]2(C)O1` [D.1.2] were, in that order, > 7.00 and 5.70 to 6.70.
The corresponding values for `CC(C)C[C@H](NC(=O)[C@H](CCCNC(=N)N[N+](=O)[O-])NC(=O)CCCNC(=O)OCC1c2ccccc2-c2ccccc21)B(O)O` [D.7.38, Boronic acid, [(1R)-1-[[(2S)-5-[[imino(nitroamino)methyl]amino]-2-[[[[[(9H-fluoren-9-yl)methoxy]carbonyl]amino]butanoyl]amino]-1-oxopentyl]amino]-3-methylbutyl]] are > 8.00 and 5.70 to 6.70.
The like results for `CC(C)C[C@H](NC(=O)[C@H](CCCNC(=N)N[N+](=O)[O-])NC(=O)c1ccc(C(C)C)cc1)B(O)O` [D.7.11, Boronic acid, [(1R)-1-[[(2S)-5-[[imino(nitroamino)methyl]amino]-2-[(4-isopropylbenzoyl)amino]-1-oxopentyl]amino]-3-methylbutyl]] were, in that order, > 8.00 and 5.00 to 5.70.
`CC(C)C[C@H](NC(=O)[C@H](CCCNC(=N)N[N+](=O)[O-])NC(=O)CCCCCCCc1ccccc1)B(O)O` [E.2.46, Boronic acid, [(1R)-1-[[(2S)-5-[[imino(nitroamino)methyl]amino]-2-[(8-phenyloctanoyl)amino]-1-oxopentyl]amino]-3-methylbutyl]]: the pIC50 in experiment [1] is > 8.00. Further, the pEC50 in experiment [2] is 5.70 to 6.70.
The like results for `CC(C)C[C@H](NC(=O)[C@H](CCCNC(=N)N[N+](=O)[O-])NC(=O)CCc1c[nH]c2ccccc12)B1O[C@@H]2C[C@@H]3C[C@@H](C3(C)C)[C@]2(C)O1` [D.3.103, 3-(1H-Indol-3-yl)-propanamide,N-[(1S)-1-[[[(1R)-1-[(3aS,4S,6S,7aR)-hexahydro-3a,5,5-trimethyl-4,6-methano-1,3,2-benzodioxaborol-2-yl]-3-methylbutyl]amino]carbonyl]-4-[[imino(nitroamino)methyl]amino]butyl]] were, in that order, > 8.00 and 5.70 to 6.70.
